Tests used:
[1] = system: 2-Thiobarbituric Acid Reactive Substances (TBARS); experiment: TBARS levels in mouse tongues; format: in vivo, ICR mice; conditions: 12 days after irradiation
From the text: (§1) The scoring of oral mucositis was based on a modification of the method of Sonis et al. To assess the severity of oral mucositis, mice were anesthetized with isoflurane every day. The oral mucositis score was: 0=normal; 1=partial hyperemia, erythema and swelling; 2=overall hyperemia, erythema and swelling; 3=epidermolysis, hyperemia and erythema; 4=extensive epidermolysis and bleeding; 5=bleeding and abscesses. Myeloperoxidase (MPO) activity is a marker for neutrophils in inflamed tissue. MPO activity was measured in mouse tongues using a modification of the method of Chen et al. After mice had been killed by cervical dislocation 12 days after irradiation, tongue samples (n=10 per group) were removed and stored at −70° C. until required for assay. […] MPO activity was measured using a Microplate Reader (NJ-2300; Biotec, Tokyo, Japan) at 450 nm. MPO activity was calculated by measuring the slope of absorbance calibrated using MPO standards (Wako Biochemicals) and expressed as MPO/g tongue. […] TBARS levels were measured using the Microplate Reader (Biotec) at 540 nm. TBARS levels were calculated by measuring the slope of absorbance calibrated using TBARS standards and expressed as TBARS/g tongue. […] The number of TUNEL-positive cells on the tongue tips were counted and expressed as a percentage. […] Data were analyzed using one-way analysis of variance (ANOVA) followed by the Steel-Dwass test. […]

[2] = system: biopsy wound; experiment: Healing of biopsy wounds in irradiated skin; format: in vivo, Gottingen mini-pigs; conditions: biopsy wound 3 days after irradiation
[3] = system: mouse tongues; experiment: TUNEL staining of tongue sections (apoptosis); format: in vivo, ICR mice; conditions: 12 days post-irradiation, control 23.7%
From the text: as §1

[4] = system: Myeloperoxidase (MPO); experiment: Myeloperoxidase (MPO) activity in mouse tongues; format: in vivo, ICR mice; conditions: 12 days after irradiation
From the text: as §1

[5] = system: peripheral blood; experiment: Peripheral blood counts after focal irradiation; format: in vivo, Gottingen mini-pigs
From the text: Blood samples were collected via the ear vein into sample tubes containing ethylenediaminetetraacetic acid at different time points (before irradiation, 3, 7, 21, and 35 days after irradiation). Peripheral eosinophils were automatically counted using a Hemavet System (Drew Scientific, UK).

[6] = system: cyclooxygenase-2 (COX-2); experiment: COX-2 immunohistochemistry of irradiated skin; format: in vivo, Gottingen mini-pigs; conditions: 7, 21 and 35 days after irradiation
Description: (§2) After incubation in normal horse serum for 60 min to prevent nonspecific binding, the skin sections were incubated with mouse anti-nuclear factor (NF)-κB (sc-109, 1:200; Santa Cruz Biotechnology, Santa Cruz, CA, USA) and mouse anti-COX-2 (18-7379, 1:200; Zymed, USA) in phosphate buffered saline-Tween (PBS-T overnight at 4° C. The sections were subsequently incubated with biotinylated horse anti-mouse IgG (VECTASTAIN Elite ABC Kit; Vector Laboratories, USA). The immunoreactivity was assessed using the avidin-biotin peroxidase complex (VECTASTAIN Elite ABC Kit; Vector Laboratories). The peroxidase reaction was developed using a diaminobenzidine substrate kit (DAB Substrate Kit SK-4100; Vector Laboratories). As a control, the primary antibodies were omitted from the immunohistochemical analysis of a few test sections in each experiment. The sections were then counterstained with hematoxylin before being mounted.

[7] = system: irradiated skin of pigs; experiment: Skin biopsy histology (hematoxylin and eosin): basal cell density and epidermal thickness; format: in vivo, Gottingen mini-pigs
Description: A 5 mm punch biopsy was performed under anesthesia to obtain a skin sample from the non-irradiated healthy skin and the irradiated skin area 3, 7, 21, and 35 days after irradiation. After collection, skin biopsy samples were pinned to a cork to maintain the 5 mm size. Biopsy samples of non-irradiated skin were obtained from each pig before irradiation. All biopsy samples were processed and embedded in paraffin wax after fixation in 10% buffered formalin, then cut into 4 μm thick coronal sections and deparaffinized. Next, the sections were stained with hematoxylin and eosin and examined by optical microscopy. The longest rete ridge on each slide was selected and measured from the bottom of the basal layer to the bottom of the stratum corneum, avoiding the areas in which the inclusion appeared to be oblique. The mean values were then calculated based on the measurements of each section on each slide. The cell density of the basal layers was determined by counting the cells in the basement membrane at a depth of at least 5 mm. The results were expressed as the number of cells per millimeter of basement membrane.
The data were expressed as the means±the standard error of the mean (SEM) values. Differences between groups were evaluated by one-way analysis of variance (ANOVA) followed by a Student-Newman-Keuls post hoc test for multiple comparisons. In all cases, a p<0.05 was considered significant.

[8] = system: nuclear factor (NF)-κB; experiment: NF-κB immunohistochemistry of irradiated skin; format: in vivo, Gottingen mini-pigs
Description: as §2

[9] = 21 and 35 days after irradiation, decrease not significant

COc1cc2c(CCCCN=C=S)c[nH]c2cc1O [6OHM-6-HITC]
TBARS levels vs. control group ([1]; 30 mg/kg i.p.): lower
TBARS levels vs. control group ([1]; 300 mg/kg i.p.): significant decrease
healing of the biopsy wound [2]: attenuated the radiation-induced delayed healing
percentage of TUNEL-positive cells ([3]; 30 mg/kg i.p.): 9.9%
percentage of TUNEL-positive cells ([3]; 300 mg/kg i.p.): 8.6%
MPO activity vs. control group ([4]; 30 mg/kg i.p.): significantly lower
MPO activity vs. control group ([4]; 300 mg/kg i.p.): significantly lower
eosinophils in the blood [5, 9]: decreased
neutrophils in the blood [5, 9]: decreased
radioprotective effect on peripheral blood (white blood cell count) ([5]; initially (7 days after exposure)): did not show a radioprotective effect
COX-2 expression in the irradiated skin vs. vehicle-treated skin [6]: lower
basal cell counts (density) in the epidermis ([7]; 21 days after irradiation, p<0.01 vs. vehicle-treated irradiation group): significantly ameliorated
thickness of the epidermis ([7]; 35 days after irradiation, p<0.01 vs. vehicle-treated irradiation group): prevented this decrease
basal cell counts (density) in the epidermis ([7]; 35 days after irradiation, p<0.05 vs. vehicle-treated irradiation group): significantly ameliorated
NF-κB expression in irradiated skin vs. vehicle-treated irradiated skin ([8]; 7, 21 and 35 days after irradiation): lower
nuclear NF-κB expression ([8]; irradiated skin, treated): rapidly decreased
